Measured values reported in ChEMBL document CHEMBL1212927, “Synthesis and structure-activity relationships of novel 8a-aza-8a-homoerythromycin A ketolides” (2010).
In brackets after ≈: the same amount, converted by molar mass.

Assays:
Streptococcus pyogenes [1] = experiment: Antibacterial activity against erythromycin A-susceptible Streptococcus pyogenes B0542 by agar microdilution method
Streptococcus pneumoniae [2] = experiment: Antibacterial activity against efflux-resistant Streptococcus pneumoniae B0326 by agar microdilution method; type: functional
Staphylococcus aureus [3] = experiment: Antibacterial activity against erythromycin A-susceptible Staphylococcus aureus B0329 by agar microdilution method
Haemophilus influenzae = experiment: Antibacterial activity against Haemophilus influenzae B0529 by agar microdilution method; type: functional
Moraxella catarrhalis = experiment: Antibacterial activity against Moraxella catarrhalis B0324 by agar microdilution method; type: functional
Streptococcus pyogenes [4] = experiment: Antibacterial activity against efflux-resistant Streptococcus pyogenes B0545 by agar microdilution method; type: functional
Streptococcus pyogenes [5] = experiment: Antibacterial activity against constitutive macrolide-lincosamide-streptogramin B-resistant Streptococcus pyogenes B0544 by agar microdilution method; type: functional
Staphylococcus aureus [6] = experiment: Antibacterial activity against inducible macrolide-lincosamide-streptogramin B-resistant Staphylococcus aureus B0538 by agar microdilution method; type: functional
Streptococcus pneumoniae [7] = experiment: Antibacterial activity against constitutive macrolide-lincosamide-streptogramin B-resistant Streptococcus pneumoniae B0627 by agar microdilution method; type: functional
Streptococcus pneumoniae [8] = experiment: Antibacterial activity against erythromycin-susceptible Streptococcus pneumoniae B0541 by agar microdilution method
Streptococcus pyogenes [9] = experiment: Antibacterial activity against inducible macrolide-lincosamide-streptogramin B-resistant Streptococcus pyogenes B0543 by agar microdilution method; type: functional
Staphylococcus aureus [10] = experiment: Antibacterial activity against efflux-resistant Staphylococcus aureus B0331 by agar microdilution method; type: functional
Staphylococcus aureus [11] = experiment: Antibacterial activity against constitutive macrolide-lincosamide-streptogramin B-resistant Staphylococcus aureus B0330 by agar microdilution method; type: functional

Row | Structure (SMILES) | MIC (Streptococcus pyogenes [1]) | MIC (Streptococcus pneumoniae [2]) | MIC (Staphylococcus aureus [3]) | MIC (Haemophilus influenzae) | MIC (Moraxella catarrhalis) | MIC (Streptococcus pyogenes [4]) | MIC (Streptococcus pyogenes [5]) | MIC (Staphylococcus aureus [6]) | MIC (Streptococcus pneumoniae [7]) | MIC (Streptococcus pneumoniae [8]) | MIC (Streptococcus pyogenes [9]) | MIC (Staphylococcus aureus [10]) | MIC (Staphylococcus aureus [11])
1 | CC[C@H]1OC(=O)[C@H](C)C(=O)[C@H](C)[C@@H](O[C@@H]2O[C@H](C)C[C@H](N(C)C)[C@H]2O)[C@](C)(OCC(O)CN2CCN(c3cnc4ccccc4c3)CC2)C[C@@H](C)NC(=O)[C@H](C)[C@@H](O)[C@]1(C)O (stereo partly specified) | ≤ 0.125 µg/mL | 1 µg/mL (≈ 1.17 µM) | 1 µg/mL (≈ 1.17 µM) | 8 µg/mL (≈ 9.32 µM) | 4 µg/mL (≈ 4.66 µM) | 4 µg/mL (≈ 4.66 µM) | 32 µg/mL (≈ 37.3 µM) | 2 µg/mL (≈ 2.33 µM) | 4 µg/mL (≈ 4.66 µM) | ≤ 0.125 µg/mL | 8 µg/mL (≈ 9.32 µM) | 0.5 µg/mL (≈ 0.583 µM) | > 64 µg/mL
2 | CC[C@H]1OC(=O)[C@H](C)C(=O)[C@H](C)[C@@H](O[C@@H]2O[C@H](C)C[C@H](N(C)C)[C@H]2O)[C@](C)(OCC(O)CNc2ccc3ncccc3c2)C[C@@H](C)NC(=O)[C@H](C)[C@@H](O)[C@]1(C)O (stereo partly specified) | ≤ 0.125 µg/mL | 1 µg/mL (≈ 1.27 µM) | 1 µg/mL (≈ 1.27 µM) | 0.5 µg/mL (≈ 0.634 µM) | 1 µg/mL (≈ 1.27 µM) | 4 µg/mL (≈ 5.07 µM) | 8 µg/mL (≈ 10.1 µM) | 2 µg/mL (≈ 2.53 µM) | 2 µg/mL (≈ 2.53 µM) | ≤ 0.125 µg/mL | 2 µg/mL (≈ 2.53 µM) | 0.25 µg/mL (≈ 0.317 µM) | > 64 µg/mL
3 | CCOc1ccccc1N1CCN(CC(O)CO[C@]2(C)C[C@@H](C)NC(=O)[C@H](C)[C@@H](O)[C@](C)(O)[C@@H](CC)OC(=O)[C@H](C)C(=O)[C@H](C)[C@H]2O[C@@H]2O[C@H](C)C[C@H](N(C)C)[C@H]2O)CC1 (mixture of isomers) | ≤ 0.125 µg/mL | 8 µg/mL | 2 µg/mL | 32 µg/mL | 2 µg/mL | 4 µg/mL | 16 µg/mL | 2 µg/mL | 16 µg/mL | 0.5 µg/mL | 8 µg/mL | 4 µg/mL | > 64 µg/mL
4 | CC[C@H]1OC(=O)[C@H](C)C(=O)[C@H](C)[C@@H](O[C@@H]2O[C@H](C)C[C@H](N(C)C)[C@H]2O)[C@](C)(OCC(O)CNCCCc2ccccc2)C[C@@H](C)NC(=O)[C@H](C)[C@@H](O)[C@]1(C)O (stereo partly specified) | 0.25 µg/mL (≈ 0.321 µM) | 8 µg/mL (≈ 10.3 µM) | 4 µg/mL (≈ 5.13 µM) | 16 µg/mL (≈ 20.5 µM) | 1 µg/mL (≈ 1.28 µM) | 1 µg/mL (≈ 1.28 µM) | 16 µg/mL (≈ 20.5 µM) | 8 µg/mL (≈ 10.3 µM) | 8 µg/mL (≈ 10.3 µM) | 0.25 µg/mL (≈ 0.321 µM) | 1 µg/mL (≈ 1.28 µM) | 8 µg/mL (≈ 10.3 µM) | > 64 µg/mL
5 | CC[C@H]1OC(=O)[C@H](C)C(=O)[C@H](C)[C@@H](O[C@@H]2O[C@H](C)C[C@H](N(C)C)[C@H]2O)[C@](C)(OCC(O)CNCc2cnc3ccccc3c2)C[C@@H](C)NC(=O)[C@H](C)[C@@H](O)[C@]1(C)O (mixture of isomers) | ≤ 0.125 µg/mL | 4 µg/mL | 1 µg/mL | 4 µg/mL | 2 µg/mL | 8 µg/mL | 8 µg/mL | 2 µg/mL | 8 µg/mL | ≤ 0.125 µg/mL | 4 µg/mL | 0.5 µg/mL | > 64 µg/mL
6 | CC[C@H]1OC(=O)[C@H](C)C(=O)[C@H](C)[C@@H](O[C@@H]2O[C@H](C)C[C@H](N(C)C)[C@H]2O)[C@](C)(OC)C[C@@H](C)C(=O)[C@H](C)[C@H]2N(CCCCn3cnc(-c4cccnc4)c3)C(=O)O[C@]12C [TELITHROMYCIN] | ≤ 0.06 µg/mL | 0.5 µg/mL (≈ 0.616 µM) | ≤ 0.125 µg/mL | 1 µg/mL (≈ 1.23 µM) | ≤ 0.125 µg/mL | 0.25 µg/mL (≈ 0.308 µM) | 4 µg/mL (≈ 4.93 µM) | 0.5 µg/mL (≈ 0.616 µM) | ≤ 0.125 µg/mL | ≤ 0.06 µg/mL | ≤ 0.06 µg/mL | 0.25 µg/mL (≈ 0.308 µM) | > 64 µg/mL
7 | CC[C@H]1OC(=O)[C@H](C)[C@@H](O[C@H]2C[C@@](C)(OC)[C@@H](O)[C@H](C)O2)[C@H](C)[C@@H](O[C@@H]2O[C@H](C)C[C@H](N(C)C)[C@H]2O)[C@](C)(O)C[C@@H](C)CN(C)[C@H](C)[C@@H](O)[C@]1(C)O [AZITHROMYCIN] | ≤ 0.125 µg/mL | 4 µg/mL (≈ 5.34 µM) | 1 µg/mL (≈ 1.34 µM) | 1 µg/mL (≈ 1.34 µM) | 0.25 µg/mL (≈ 0.334 µM) | 1 µg/mL (≈ 1.34 µM) | > 64 µg/mL | > 64 µg/mL | > 64 µg/mL | ≤ 0.125 µg/mL | 8 µg/mL (≈ 10.7 µM) | > 64 µg/mL | > 64 µg/mL
8 | CC[C@H]1OC(=O)[C@H](C)C(=O)[C@H](C)[C@@H](O[C@@H]2O[C@H](C)C[C@H](N(C)C)[C@H]2O)[C@](C)(OCC(O)CN2CCN(c3ccc(C(C)=O)cc3)CC2)C[C@@H](C)NC(=O)[C@H](C)[C@@H](O)[C@]1(C)O (mixture of isomers) | 0.5 µg/mL | 2 µg/mL | 2 µg/mL | 16 µg/mL | 4 µg/mL | 4 µg/mL | 32 µg/mL | 4 µg/mL | 32 µg/mL | 1 µg/mL | 8 µg/mL | 2 µg/mL | > 64 µg/mL
9 | CC[C@H]1OC(=O)[C@H](C)C(=O)[C@H](C)[C@@H](O[C@@H]2O[C@H](C)C[C@H](N(C)C)[C@H]2O)[C@](C)(OCC(O)CNCCNc2cnc3ccccc3c2)C[C@@H](C)NC(=O)[C@H](C)[C@@H](O)[C@]1(C)O (mixture of isomers) | ≤ 0.125 µg/mL | 0.25 µg/mL | 1 µg/mL | 1 µg/mL | ≤ 0.125 µg/mL | 0.5 µg/mL | 4 µg/mL | 1 µg/mL | 1 µg/mL | ≤ 0.125 µg/mL | 1 µg/mL | 0.25 µg/mL | > 64 µg/mL
10 | CC[C@H]1OC(=O)[C@H](C)C(=O)[C@H](C)[C@@H](O[C@@H]2O[C@H](C)C[C@H]([N+](C)(C)[O-])[C@H]2O)[C@](C)(OCC2CO2)C[C@@H](C)NC(=O)[C@H](C)[C@@H](O)[C@]1(C)O (stereo partly specified) | > 64 µg/mL | > 64 µg/mL | > 64 µg/mL | > 64 µg/mL | > 64 µg/mL | > 64 µg/mL | > 64 µg/mL | > 64 µg/mL | > 64 µg/mL | > 64 µg/mL | > 64 µg/mL | > 64 µg/mL | > 64 µg/mL
11 | CC[C@H]1OC(=O)[C@H](C)C(=O)[C@H](C)[C@@H](O[C@@H]2O[C@H](C)C[C@H](N(C)C)[C@H]2O)[C@](C)(OCC=Cc2cnc3ccccc3c2)C[C@@H](C)C(=O)[C@H](C)[C@H]2NC(=O)O[C@@]21C [CETHROMYCIN] | ≤ 0.06 µg/mL | ≤ 0.06 µg/mL | ≤ 0.06 µg/mL | 1 µg/mL (≈ 1.31 µM) | ≤ 0.125 µg/mL | ≤ 0.125 µg/mL | 1 µg/mL (≈ 1.31 µM) | 0.25 µg/mL (≈ 0.326 µM) | ≤ 0.125 µg/mL | ≤ 0.06 µg/mL | ≤ 0.06 µg/mL | 0.25 µg/mL (≈ 0.326 µM) | > 64 µg/mL
12 | CC[C@H]1OC(=O)[C@H](C)C(=O)[C@H](C)[C@@H](O[C@@H]2O[C@H](C)C[C@H](N(C)C)[C@H]2O)[C@](C)(OCC(O)CN2CCN(c3cccc(C(F)(F)F)c3)CC2)C[C@@H](C)NC(=O)[C@H](C)[C@@H](O)[C@]1(C)O (mixture of isomers) | ≤ 0.125 µg/mL | 4 µg/mL | 4 µg/mL | 16 µg/mL | 1 µg/mL | 2 µg/mL | 16 µg/mL | 4 µg/mL | 16 µg/mL | 0.5 µg/mL | 4 µg/mL | 4 µg/mL | > 64 µg/mL
